Reference: PubChem BioAssay AID248 (DTP/NCI, 2004)
Where “and” joins values, the source holds several entries; their conditions need not be identical. Equal entries are not always repeated. Inconclusive results and toxic doses are left out. No stated cut-off is given here; in the data, active means T/C of 150% or more; inactive means T/C below 125%.

Test system: L1210 leukemia ip in BDF1 mice, survival T/C
Experiment: NCI In Vivo Anticancer Drug Screen. Data for tumor model L1210 Leukemia (intraperitoneal) in B6D2F1 (BDF1) mice
Settings: endpoint: mean survival time, higher = longer survival
Procedure, shortened: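 Tumor was transplanted into mice, which were then dosed with test compound or vehicle alone. Survival was recorded for each group, and the treated figure was expressed relative to the control figure.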

[1] = dose: 50.0 mg/kg/injection, schedule: Q01DX009 (ip), vehicle: saline
[2] = dose: 100.0 mg/kg/injection, schedule: Q01DX001 (ip), vehicle: saline
[3] = dose: 100.0 mg/kg/injection, schedule: Q01DX009 (ip), vehicle: saline
[4] = dose: 200.0 mg/kg/injection, schedule: Q01DX001 (ip), vehicle: saline
[5] = dose: 200.0 mg/kg/injection, schedule: Q01DX009 (ip), vehicle: saline
[6] = dose: 100.0 mg/kg/injection, schedule: Q04DX003 (ip), vehicle: saline
[7] = dose: 200.0 mg/kg/injection, schedule: Q04DX003 (ip), vehicle: saline
[8] = dose: 400.0 mg/kg/injection, schedule: Q04DX003 (ip), vehicle: saline
[9] = dose: 100.0 mg/kg/injection, schedule: Q04DX003 (ip), vehicle: Klucel (hydroxypropylcellulose) (HPC)
[10] = dose: 200.0 mg/kg/injection, schedule: Q04DX003 (ip), vehicle: Klucel (hydroxypropylcellulose) (HPC)
[11] = dose: 400.0 mg/kg/injection, schedule: Q04DX003 (ip), vehicle: Klucel (hydroxypropylcellulose) (HPC)
[12] = dose: 100.0 mg/kg/injection, schedule: Q04DX003 (ip), vehicle: saline with Tween-80
[13] = dose: 200.0 mg/kg/injection, schedule: Q04DX003 (ip), vehicle: saline with Tween-80
[14] = dose: 50.0 mg/kg/injection, schedule: Q01DX009 (ip), vehicle: saline with Tween-80
[15] = dose: 100.0 mg/kg/injection, schedule: Q01DX009 (ip), vehicle: saline with Tween-80
[16] = dose: 200.0 mg/kg/injection, schedule: Q01DX009 (ip), vehicle: saline with Tween-80
[17] = dose: 400.0 mg/kg/injection, schedule: Q04DX003 (ip), vehicle: saline with Tween-80
[18] = dose: 400.0 mg/kg/injection, schedule: Q01DX001 (ip), vehicle: saline
[19] = dose: 100.0 mg/kg/injection, schedule: Q04DX002 (ip), vehicle: saline
[20] = dose: 200.0 mg/kg/injection, schedule: Q04DX002 (ip), vehicle: saline
[21] = dose: 400.0 mg/kg/injection, schedule: Q04DX002 (ip), vehicle: saline

Measured: T/C

Cc1cc(C)c(S(=O)(=O)Cc2cc(Cl)cc(Cl)c2O)c(C)c1
inactive: [1] 86 % of control | dose: 50.0 mg/kg/injection, schedule: Q04DX003 (ip), vehicle: acetone 93 % of control | [2] 88 % of control | [3] 105 % of control | dose: 100.0 mg/kg/injection, schedule: Q04DX003 (ip), vehicle: acetone 89 % of control | [4] 87 % of control | [5] 91 % of control | dose: 200.0 mg/kg/injection, schedule: Q04DX003 (ip), vehicle: acetone 91 % of control

ON=C1CSCSC1
inactive: dose: 12.5 mg/kg/injection, schedule: Q04DX002 (ip), vehicle: saline 91 % of control | dose: 25.0 mg/kg/injection, schedule: Q04DX002 (ip), vehicle: saline 94 % of control | dose: 50.0 mg/kg/injection, schedule: Q04DX002 (ip), vehicle: saline 88 % of control

NCC(Cc1ccc(O)cc1)P(=O)(O)O (stereo not given)
inactive: [6] 100 % of control | [7] 95 % of control | [8] 92 % of control

O=C/C(Br)=C(\Br)C(=O)O
inactive: dose: 12.5 mg/kg/injection, schedule: Q01DX001 (ip), vehicle: carboxymethylcellulose (CMC) 93 % of control | dose: 12.5 mg/kg/injection, schedule: Q01DX009 (ip), vehicle: carboxymethylcellulose (CMC) 95 % of control | dose: 12.5 mg/kg/injection, schedule: Q04DX002 (ip), vehicle: carboxymethylcellulose (CMC) 97 % of control | dose: 12.5 mg/kg/injection, schedule: Q04DX003 (ip), vehicle: carboxymethylcellulose (CMC) 97 % of control | dose: 25.0 mg/kg/injection, schedule: Q01DX001 (ip), vehicle: carboxymethylcellulose (CMC) 93 % of control | dose: 25.0 mg/kg/injection, schedule: Q01DX009 (ip), vehicle: carboxymethylcellulose (CMC) 98 % of control and 92 % of control | dose: 25.0 mg/kg/injection, schedule: Q04DX002 (ip), vehicle: carboxymethylcellulose (CMC) 93 % of control and 98 % of control | dose: 25.0 mg/kg/injection, schedule: Q04DX003 (ip), vehicle: carboxymethylcellulose (CMC) 103 % of control | dose: 50.0 mg/kg/injection, schedule: Q01DX001 (ip), vehicle: carboxymethylcellulose (CMC) 106 % of control | dose: 50.0 mg/kg/injection, schedule: Q01DX009 (ip), vehicle: carboxymethylcellulose (CMC) 96 % of control | dose: 50.0 mg/kg/injection, schedule: Q04DX002 (ip), vehicle: carboxymethylcellulose (CMC) 90 % of control

O[O][Ge]([c]1ccccc1)([c]1ccccc1)[c]1ccccc1
inactive: [9] 88 % of control | [10] 91 % of control | [11] 88 % of control

Cc1ccc(N=Cc2cc(Cl)cc(Cl)c2OC(=O)c2ccccc2)cc1C
inactive: dose: 100.0 mg/kg/injection, schedule: Q04DX002 (ip), vehicle: saline with Tween-80 95 % of control | dose: 200.0 mg/kg/injection, schedule: Q04DX002 (ip), vehicle: saline with Tween-80 92 % of control | dose: 400.0 mg/kg/injection, schedule: Q04DX002 (ip), vehicle: saline with Tween-80 88 % of control

Cc1ccc(Sc2cccc3c(C)c4cccc5c4c(c23)C[S+]5c2ccc(C)cc2)cc1 (stereo not given)
inactive: dose: 1.56 mg/kg/injection, schedule: Q01DX009 (ip), vehicle: saline with Tween-80 103 % of control | dose: 3.13 mg/kg/injection, schedule: Q01DX009 (ip), vehicle: saline with Tween-80 101 % of control | dose: 6.25 mg/kg/injection, schedule: Q01DX009 (ip), vehicle: saline with Tween-80 103 % of control

Oc1cc2c(O)cccc2c2ccccc12
inactive: [12] 92 % of control | [13] 90 % of control

CCOC(=O)NCCCCCCNC(=O)OCC
inactive: [14] 97 % of control | [15] 95 % of control | [16] 95 % of control

CC(C)N(C)C(C1=CC(C)(C)c2ccccc2C1=O)c1ccccc1 (stereo not given)
inactive: [9] 108 % of control | [10] 101 % of control | [11] 101 % of control

O=C(O)CNc1nc(Cl)nc(NCC(=O)O)n1
inactive: dose: 50.0 mg/kg/injection, schedule: Q01DX009 (ip), vehicle: Klucel (hydroxypropylcellulose) (HPC) 106 % of control | dose: 100.0 mg/kg/injection, schedule: Q01DX009 (ip), vehicle: Klucel (hydroxypropylcellulose) (HPC) 89 % of control

CCc1oc(N)nc1-c1ccccc1
inactive: [12] 105 % of control | [13] 101 % of control | [17] 97 % of control

CCOC(=O)/C=C(/CC(=O)OCC)Nc1ccc(C)cc1
inactive: [2] 89 % of control | [4] 99 % of control | [18] 97 % of control

O=C1NC(c2cccc(Cl)c2)N2C(=O)NC(c3cccc(Cl)c3)N12 (stereo not given)
inactive: dose: 100.0 mg/kg/injection, schedule: Q01DX009 (ip), vehicle: gum acacia 93 % of control | dose: 100.0 mg/kg/injection, schedule: Q04DX003 (ip), vehicle: gum acacia 92 % of control | dose: 200.0 mg/kg/injection, schedule: Q04DX003 (ip), vehicle: gum acacia 103 % of control | dose: 400.0 mg/kg/injection, schedule: Q01DX009 (ip), vehicle: gum acacia 90 % of control | dose: 400.0 mg/kg/injection, schedule: Q04DX003 (ip), vehicle: gum acacia 92 % of control

CCC#CC(=O)OCC
inactive: [19] 108 % of control | [20] 97 % of control | [21] 105 % of control

Cc1ccc(S(=O)(=O)N/N=C2\CC3(Cl)CCC2C3)cc1 (stereo not given)
inactive: [15] 88 % of control | [12] 92 % of control | [16] 91 % of control | [13] 97 % of control | [17] 101 % of control

Cc1cc(NS(=O)(=O)c2ccc(N)cc2)no1
inactive: [3] 97 % of control | [6] 104 % of control | [5] 94 % of control | [7] 99 % of control | dose: 400.0 mg/kg/injection, schedule: Q01DX009 (ip), vehicle: saline 96 % of control | [8] 114 % of control

Cc1nc2cnn(C)c2nc1C
inactive: [1] 101 % of control | [3] 97 % of control | [6] 106 % of control | [5] 88 % of control | [7] 100 % of control

Nc1cc(Br)cc2c1nc(NCCO)c1ccccc12
inactive: dose: 50.0 mg/kg/injection, schedule: Q04DX003 (ip), vehicle: Klucel (hydroxypropylcellulose) (HPC) 118 % of control | [9] 102 % of control | [10] 97 % of control | [11] 105 % of control

NC(=O)N1CCN(c2ccccc2)CC1
inactive: [9] 95 % of control | [10] 97 % of control | [11] 101 % of control

CC1OC(OC2CCC3(C)C(CCC4C3CC(O)C3(C)C(C5=CC(=O)OC5)CCC43O)C2)CC(O)C1OC1CC(O)C(OC2CC(O)C(OC3OC(CO)C(O)C(O)C3O)C(C)O2)C(C)O1 (stereo not given)
inactive: dose: 4.0 mg/kg/injection, schedule: Q01DX015 (sc), vehicle: steriod suspending solution 96 % of control | dose: 8.0 mg/kg/injection, schedule: Q01DX015 (sc), vehicle: steriod suspending solution 104 % of control | dose: 16.0 mg/kg/injection, schedule: Q01DX015 (sc), vehicle: steriod suspending solution 102 % of control | dose: 32.0 mg/kg/injection, schedule: Q01DX015 (sc), vehicle: steriod suspending solution 98 % of control | [2] 100 % of control | [4] 101 % of control | [18] 100 % of control

Clc1ccc(/C=C/c2ccccn2)c(Cl)c1
inactive: dose: 100.0 mg/kg/injection, schedule: Q04DX002 (ip), vehicle: gum acacia 109 % of control | dose: 200.0 mg/kg/injection, schedule: Q04DX002 (ip), vehicle: gum acacia 95 % of control | dose: 400.0 mg/kg/injection, schedule: Q04DX002 (ip), vehicle: gum acacia 87 % of control

C[N+]1(C)C2CCC1C(CO)C(O)C2 (stereo not given)
inactive: [2] 94 % of control | [4] 97 % of control | [18] 94 % of control

CCNC(=O)OC1C=CS(=O)(=O)C1 (stereo not given)
inactive: [19] 106 % of control | [20] 92 % of control | [21] 106 % of control

O=C(NCCBr)Nc1ccc([N+](=O)[O-])cc1
inactive: [14] 90 % of control | [15] 87 % of control

O=P(O)(O)CCC(F)(F)C(F)(F)C(F)(F)C(F)(F)C(F)(F)C(F)(F)C(F)(F)F
inactive: dose: 75.0 mg/kg/injection, schedule: Q01DX001 (ip), vehicle: saline 96 % of control
